# Where a SMILES comes first, the peptide text is derived from it. Bridges are numbered along the chain shown (N, C = ends).
# Columns and labels:
# [1] = Stability in mouse serum by RP-HPLC; type: in vitro ADME; details: 25% mouse serum spiked with 100 μg/ml NZX, 37°C, peak area ratio to initial time, read-out: peptide remaining intact
# Description: The stability of NZX in the mouse serum was determined when placed at 37°C (Wang et al., [2020]). The stock mixture from 25% serum was spiked with 100 μg/ml NZX and vortexed well. The mixtures were incubated at 37°C. At 0, 4, 8, 12, and 24 h, samples were taken out, extracted, and analyzed by reverse-phase high-performance liquid chromatography (RP-HPLC). The results were expressed as the ratio of the peak area of the peptide at various times to that of the initial incubation time.
# [2] = Serum protein binding by ultrafiltration; type: in vitro ADME, mouse; details: murine serum, ultrafiltration with Centrifree Filters, ultrafiltrate by HPLC
# Description: (§1) The 6-week-old, specific-pathogen-free, female ICR mice (starting weight, 23 to 27 g) were purchased from Beijing Vital River Laboratory Animal Technology Co., Ltd (Beijing, China). The animals were acclimatized for 2 to 3 days before the experiment. The pharmacokinetics of NZX was evaluated in uninfected female ICR mice that received a single tail vein NZX dose of 5, 10, or 20 mg/kg, respectively. After NZX administration, blood samples were collected by orbital venous from five mice per time point at 0.083 to 2 h intervals over 6 h. After centrifugation at 4,000 rpm for 20 min at 4°C, the serum was immediately separated and frozen at −80°C until analysis. Analyses of total serum concentrations of NZX were conducted by a microbiologic assay using S. aureus ATCC 6538p (CICC 10307) as the test strain (Andes et al., [2009]). […] The protein binding of NZX in serum was measured by the ultrafiltration method using Centrifree Filters (Merck Millipore Ltd., Product code: 4104), according to previously described methods by Brinch et al. ([2009]). The concentration of NZX in the ultrafiltrate was determined by HPLC methods.
# S. aureus E48 = test: PK/PD index determination, dose fractionation, sigmoidal Emax model; type: in vivo, mouse
# Description: A dose fractionation study was applied to determine the PK/PD parameters of ƒAUC/MIC, ƒCmax/MIC, and ƒT% > MIC, and those parameters were predictive of efficacies for NZX against S. aureus E48. […] The correlations between efficacies and each PK/PD index were analyzed by non-linear least-squares regression based on the sigmoidal Emax model (Hill's equation) (Yu et al., [2016]). Hill's equation was defined as follows:
# E =[…] × Ce^N/EC50N + Ce^N
# where E is the observed antibacterial effect, which describes the change of log10 CFU/ml in the peritoneal fluid after 24 h of NZX treatment compared to the colony counts at the start of therapy. Emax is the change of log10 CFU/ml in the peritoneal fluid after 24 h of NZX treatment when the maximum antibacterial effect has been reached. E0 is the change of log10 CFU/ml in the peritoneal fluid between initial therapy and after 24 h therapy in untreated control animals. Ce is defined as the three PK/PD parameters (ƒAUC/MIC ratio, ƒCmax/MIC ratio, and ƒT % > MIC). EC50 is the value of the PK/PD parameter that is required to achieve 50% of the maximum antibacterial effect. N is the steepness of the fitted concentration-response curve. The coefficient of determination (R^2) between efficacy and the PK/PD parameters was used for determining the goodness of fit of the curves. In addition, the parameters required to achieve bacterial stasis (Cs), 1 log10 kill, and 2 log10 kill were calculated interpolation or extrapolation based on Hill's equation.
# [3] = Pharmacokinetics in non-infected mice, single tail vein dose; type: in vivo, mouse; details: for T1/2, terminal elimination half-life / AUC, area under concentration-time curves / Cmax, peak concentration / MRT, mean residence time / Vd, apparent distribution volume: free-serum NZX; for T1/2, terminal elimination half-life: non-infected female ICR mice, microbiologic assay, non-compartment model; for AUC, area under concentration-time curves / Cmax, peak concentration / MRT, mean residence time / Vd, apparent distribution volume: non-infected mice
# Description: as §1
# The pharmacokinetic parameters of NZX in the serum were analyzed using a non-compartment model by WinNonlin software (version 8.1; Pharsight, USA). GraphPad Prism (version 9.0.1) was used for all statistical analyses. One-way ANOVA followed by Dunnett's test was performed to compare the difference between groups. A P-value <0.05 was considered as the significant difference. Kaplan Meier analysis was conducted for the survival curve; log-rank (Mantel-Cox) test analyses were used to compare the survival rate difference.
# [4] = 5 mg/kg, 1 dose in 24 h, total dose 0.125 mg
# [5] = 5 mg/kg, 2 doses in 24 h, total dose 0.25 mg
# [6] = 10 mg/kg, 1 dose in 24 h, total dose 0.25 mg
# [7] = 10 mg/kg, 2 doses in 24 h, total dose 0.5 mg
# [8] = 20 mg/kg, 1 dose in 24 h, total dose 0.5 mg
# [9] = 20 mg/kg, 2 doses in 24 h, total dose 1 mg
# [10] = free NZX in serum, tail vein 5, 10, 20 mg/kg, range over doses
compound,measurement,setting,value
"CC[C@H](C)[C@@H]1NC(=O)[C@H](CO)NC(=O)[C@H](CCCCN)NC(=O)[C@@H]2CSSC[C@@H](C(=O)N[C@@H](Cc3ccc(O)cc3)C(=O)O)NC(=O)[C@H](CCCCN)NC(=O)[C@@H]3CSSC[C@H](NC(=O)[C@H](CCC(N)=O)NC(=O)[C@H]([C@@H](C)CC)NC(=O)[C@H](CC(=O)O)NC(=O)[C@H](CC(=O)O)NC(=O)[C@H](CCC(=O)O)NC(=O)[C@H](CO)NC(=O)[C@H](Cc4c[nH]c5ccccc45)NC(=O)[C@@H]4CCCN4C(=O)CNC(=O)[C@H](CC(N)=O)NC(=O)[C@@H](NC(=O)CNC(=O)[C@H](Cc4ccccc4)NC(=O)CN)CSSC[C@H](NC(=O)[C@H](Cc4ccc(O)cc4)NC(=O)CNC(=O)CNC(=O)[C@H](CCCCN)NC(=O)[C@H](Cc4ccc(O)cc4)NC(=O)CNC(=O)[C@H](CCCCN)NC1=O)C(=O)N[C@@H](C)C(=O)N[C@@H](CCCNC(=N)N)C(=O)NCC(=O)NCC(=O)N[C@@H](Cc1ccccc1)C(=O)N[C@@H](C(C)C)C(=O)N3)C(=O)N[C@@H](Cc1c[nH]cn1)C(=O)N[C@@H](CC(N)=O)C(=O)N[C@@H](Cc1c[nH]cn1)C(=O)N2 [NZX] (H-GFGCNGPWSEDDIQCHNHCKSIKGYKGGYCARGGFVCKCY-OH; disulfide 4-30, 15-37, 19-39)","remaining at 24 h, 100 μg/ml",[1],97%
same,Protein binding,[2],89.25%
same,fAUC/MIC,S. aureus E48; [4],1.11
same,fT > MIC,S. aureus E48; [4],0.33 h
same,fAUC/MIC,S. aureus E48; [5],2.22
same,fT > MIC,S. aureus E48; [5],0.67 h
same,fAUC/MIC,S. aureus E48; [6],3.54
same,fT > MIC,S. aureus E48; [6],0.94 h
same,fAUC/MIC,S. aureus E48; [7],7.08
same,fT > MIC,S. aureus E48; [7],1.88 h
same,fAUC/MIC,S. aureus E48; [8],8.89
same,fT > MIC,S. aureus E48; [8],2.05 h
same,fAUC/MIC,S. aureus E48; [9],17.79
same,fT > MIC,S. aureus E48; [9],4.09 h
same,time at which peak concentrations (Cmax) were observed,"[3]; after intravenous administration, 5, 10, 20 mg/kg",5 min
same,Cmax over the three dose levels,[3]; [10],2850 to 20550 ng/mL
same,T1/2 over the three dose levels,[3]; [10],19.2 to 30 min
same,Vd over the three dose levels,[3]; [10],1.4691 to 2.0739 L/kg
same,"T1/2, terminal elimination half-life","[3]; single intravenous 5 mg/kg, five mice per time point",19.2 min
same,"AUC, area under concentration-time curves",[3]; single intravenous 5 mg/kg,1110 ng·h/mL
same,"Cmax, peak concentration",[3]; single intravenous 5 mg/kg,2850 ng/mL
same,"MRT, mean residence time",[3]; single intravenous 5 mg/kg,19.2 min
same,"Vd, apparent distribution volume",[3]; single intravenous 5 mg/kg,2.0739 L/kg
same,"T1/2, terminal elimination half-life",[3]; single intravenous 10 mg/kg,30 min
same,"AUC, area under concentration-time curves",[3]; single intravenous 10 mg/kg,3540 ng·h/mL
same,"Cmax, peak concentration",[3]; single intravenous 10 mg/kg,6530 ng/mL
same,"MRT, mean residence time",[3]; single intravenous 10 mg/kg,38.4 min
same,"Vd, apparent distribution volume",[3]; single intravenous 10 mg/kg,2.04541 L/kg
same,"T1/2, terminal elimination half-life",[3]; single intravenous 20 mg/kg,27 min
same,"AUC, area under concentration-time curves",[3]; single intravenous 20 mg/kg,8890 ng·h/mL
same,"Cmax, peak concentration",[3]; single intravenous 20 mg/kg,20550 ng/mL
same,"MRT, mean residence time",[3]; single intravenous 20 mg/kg,33.6 min
same,"Vd, apparent distribution volume",[3]; single intravenous 20 mg/kg,1.4691 L/kg

# Source: article PMC9198545, “Pharmacokinetics and Pharmacodynamics of Fungal Defensin NZX Against Staphylococcus aureus-Induced Mouse Peritonitis Model” (Frontiers in Microbiology, 2022)
